Measurements taken from paper PMC6409085, “Three odorant-binding proteins are involved in the behavioral response of Sogatella furcifera to rice plant volatiles” (PeerJ, 2019).
“And” between values parts separate entries of the source, which are not always exact repeats. Equal values may be shown once.

What was measured:
Experiment in all cases: biochemical
Type in all cases: binding
[1] = target: SfurOBP1 (Sogatella furcifera, UniProt V5T8N5); details: for Fluorescence competitive binding assay, fluorescence intensity: OBP1, three replicate columns
SfurOBP1, sequence (V5T8N5 entry or part of it): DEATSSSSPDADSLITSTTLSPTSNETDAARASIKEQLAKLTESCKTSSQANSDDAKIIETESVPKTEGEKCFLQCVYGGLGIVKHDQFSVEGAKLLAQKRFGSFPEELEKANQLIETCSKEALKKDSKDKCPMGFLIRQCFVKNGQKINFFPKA
Experimental: (§1) Thirty-six rice odorants ([He et al., 2014]; [Wang et al., 2017]) and 1-N-phenyl-naphthylamine (1-NPN) were purchased from Sigma-Aldrich (St Louis, MO, USA). These odorants and 1-NPN were dissolved in high-performance liquid chromatography (HPLC) purify grade methanol for 1.0 mM as work solution.
(§2) Fluorescence competitive binding assays were performed on Tecan Spark 10M (Tecan Group Ltd., Männedorf, Switzerland) with the F96 Black ELIAS Plate (Sangon) ([Khuhro et al., 2017]; [Liu et al., 2017]). The solutions were excited at 337 nm and emission spectra were recorded between 390 and 490 nm. First, to test the binding constants of 1-NPN to the SfurOBPs, a 2.0 µM solution of protein in 50 mM Tris-HCl (pH = 7.4) was titrated with 1 mM 1-NPN to achieve virous concentrations. Next, the competitive binding of each odorant was measured using the 1-NPN as fluorescent reporter and odorant as competitor. The concentrations of protein and 1-NPN were both 2.0 µM, the odorant added after protein and 1-NPN added into the well of ELIAS Plate for 2 min. The final concentrations of each competitor were 2, 4, 6, 8, 10, 12, 14, 16, 18 and 20 µM. After 2 min of odorant added, the fluorescence intensity was measured and recorded. The volume of mixed solution in each well was maintained at 250 µL. Each interaction was performed in triplicates.
(§3) GraphPad Prism 7.0 software (GraphPad Software, Inc., La Jolla, CA, USA) was used to calculated and generated the binding constants (K1−NPN) of 1-NPN to SfurOBPs and relative Scatchard plots ([Ban et al., 2003]; [Li et al., 2016]). Dissociation constant (Ki) of each odorant to SfurOBP was computed from the corresponding IC50 value (the half maximal inhibitory concentration), using the following equation: Ki=[IC50]/(1 + [1-NPN]/K1−NPN), where [1-NPN] is the free concentration of 1-NPN and K1−NPN is the dissociation constant of the complex protein/1-NPN.

[2] = target: SfurOBP11 (Sogatella furcifera, UniProt V5T6E3)
SfurOBP11, sequence (V5T6E3 entry or part of it): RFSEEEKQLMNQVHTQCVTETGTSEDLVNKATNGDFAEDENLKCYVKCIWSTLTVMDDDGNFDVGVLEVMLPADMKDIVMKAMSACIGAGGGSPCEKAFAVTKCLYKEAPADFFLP
Experimental: as §1, §2, §3

[3] = target: SfurOBP2 (Sogatella furcifera, UniProt V5T759)
SfurOBP2, sequence (V5T759 entry or part of it): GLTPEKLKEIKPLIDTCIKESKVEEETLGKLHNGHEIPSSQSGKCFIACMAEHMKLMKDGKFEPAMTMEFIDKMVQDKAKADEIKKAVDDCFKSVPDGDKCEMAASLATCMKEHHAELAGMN
Experimental: as §1, §2, §3

[4] = target: SfurOBP3 (Sogatella furcifera, UniProt V5T818); details: for Fluorescence competitive binding assay, fluorescence intensity: OBP3, three replicate columns
SfurOBP3, sequence (V5T818 entry or part of it): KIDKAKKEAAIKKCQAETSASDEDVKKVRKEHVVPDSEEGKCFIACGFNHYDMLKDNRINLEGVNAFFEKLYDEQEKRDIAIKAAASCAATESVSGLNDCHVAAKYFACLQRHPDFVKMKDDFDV
Experimental: as §1, §2, §3

## O=C(c1ccccc1)c1ccccc1 [benzophenone]
[1]
  IC50: > 20 µM
[1]; ligand concentration 2 (μM)
  Fluorescence competitive binding assay, fluorescence intensity: 4924 and 4810 and 4695
[1]; ligand concentration 4 (μM)
  Fluorescence competitive binding assay, fluorescence intensity: 5262 and 5281 and 5299
[1]; ligand concentration 6 (μM)
  Fluorescence competitive binding assay, fluorescence intensity: 5268 and 5717 and 5292
[1]; ligand concentration 8 (μM)
  Fluorescence competitive binding assay, fluorescence intensity: 5360 and 5130 and 5580
[1]; ligand concentration 10 (μM)
  Fluorescence competitive binding assay, fluorescence intensity: 5344 and 5432 and 5519
[1]; ligand concentration 12 (μM)
  Fluorescence competitive binding assay, fluorescence intensity: 5178 and 5515 and 5347
[1]; ligand concentration 14 (μM)
  Fluorescence competitive binding assay, fluorescence intensity: 5173 and 5557 and 5365
[1]; ligand concentration 16 (μM)
  Fluorescence competitive binding assay, fluorescence intensity: 5828 and 4931 and 5380
[1]; ligand concentration 18 (μM)
  Fluorescence competitive binding assay, fluorescence intensity: 5476 and 5297 and 5257
[1]; ligand concentration 20 (μM)
  Fluorescence competitive binding assay, fluorescence intensity: 5039 and 5512 and 5595
[2]
  IC50: 16.3 µM
[2]; ligand concentration 2, replicate 1
  Fluorescence intensity, fluorescence competitive binding assay, OBP11: 21450
[2]; ligand concentration 2, replicate 2
  Fluorescence intensity, fluorescence competitive binding assay, OBP11: 21005
[2]; ligand concentration 2, replicate 3
  Fluorescence intensity, fluorescence competitive binding assay, OBP11: 21027
[2]; ligand concentration 4, replicate 1
  Fluorescence intensity, fluorescence competitive binding assay, OBP11: 20588
[2]; ligand concentration 4, replicate 2
  Fluorescence intensity, fluorescence competitive binding assay, OBP11: 20654
[2]; ligand concentration 4, replicate 3
  Fluorescence intensity, fluorescence competitive binding assay, OBP11: 20719
[2]; ligand concentration 6, replicate 1
  Fluorescence intensity, fluorescence competitive binding assay, OBP11: 19889
[2]; ligand concentration 6, replicate 2
  Fluorescence intensity, fluorescence competitive binding assay, OBP11: 20401
[2]; ligand concentration 6, replicate 3
  Fluorescence intensity, fluorescence competitive binding assay, OBP11: 19317
[2]; ligand concentration 8, replicate 1
  Fluorescence intensity, fluorescence competitive binding assay, OBP11: 19997
[2]; ligand concentration 8, replicate 2
  Fluorescence intensity, fluorescence competitive binding assay, OBP11: 20308
[2]; ligand concentration 8, replicate 3
  Fluorescence intensity, fluorescence competitive binding assay, OBP11: 18308
[2]; ligand concentration 10, replicate 1
  Fluorescence intensity, fluorescence competitive binding assay, OBP11: 18532
[2]; ligand concentration 10, replicate 2
  Fluorescence intensity, fluorescence competitive binding assay, OBP11: 18946
[2]; ligand concentration 10, replicate 3
  Fluorescence intensity, fluorescence competitive binding assay, OBP11: 17435
[2]; ligand concentration 12, replicate 1
  Fluorescence intensity, fluorescence competitive binding assay, OBP11: 17719
[2]; ligand concentration 12, replicate 2
  Fluorescence intensity, fluorescence competitive binding assay, OBP11: 18881
[2]; ligand concentration 12, replicate 3
  Fluorescence intensity, fluorescence competitive binding assay, OBP11: 17057
[2]; ligand concentration 14, replicate 1
  Fluorescence intensity, fluorescence competitive binding assay, OBP11: 16744
[2]; ligand concentration 14, replicate 2
  Fluorescence intensity, fluorescence competitive binding assay, OBP11: 17392
[2]; ligand concentration 14, replicate 3
  Fluorescence intensity, fluorescence competitive binding assay, OBP11: 16199
[2]; ligand concentration 16, replicate 1
  Fluorescence intensity, fluorescence competitive binding assay, OBP11: 16069
[2]; ligand concentration 16, replicate 2
  Fluorescence intensity, fluorescence competitive binding assay, OBP11: 15955
[2]; ligand concentration 16, replicate 3
  Fluorescence intensity, fluorescence competitive binding assay, OBP11: 16012
[2]; ligand concentration 18, replicate 1
  Fluorescence intensity, fluorescence competitive binding assay, OBP11: 16341
[2]; ligand concentration 18, replicate 2
  Fluorescence intensity, fluorescence competitive binding assay, OBP11: 15453
[2]; ligand concentration 18, replicate 3
  Fluorescence intensity, fluorescence competitive binding assay, OBP11: 16084
[2]; ligand concentration 20, replicate 1
  Fluorescence intensity, fluorescence competitive binding assay, OBP11: 15275
[2]; ligand concentration 20, replicate 2
  Fluorescence intensity, fluorescence competitive binding assay, OBP11: 14432
[2]; ligand concentration 20, replicate 3
  Fluorescence intensity, fluorescence competitive binding assay, OBP11: 14489
[3]
  IC50: > 20 µM
[3]; ligand concentration 2 (unit not given), replicate column 1 of 3
  Fluorescence competitive binding assay, OBP2 (raw fluorescence reading): 16222
[3]; ligand concentration 2 (unit not given), replicate column 2 of 3
  Fluorescence competitive binding assay, OBP2 (raw fluorescence reading): 16950
[3]; ligand concentration 2 (unit not given), replicate column 3 of 3
  Fluorescence competitive binding assay, OBP2 (raw fluorescence reading): 16565
[3]; ligand concentration 4 (unit not given), replicate column 1 of 3
  Fluorescence competitive binding assay, OBP2 (raw fluorescence reading): 15645
[3]; ligand concentration 4 (unit not given), replicate column 2 of 3
  Fluorescence competitive binding assay, OBP2 (raw fluorescence reading): 17125
[3]; ligand concentration 4 (unit not given), replicate column 3 of 3
  Fluorescence competitive binding assay, OBP2 (raw fluorescence reading): 16794
[3]; ligand concentration 6 (unit not given), replicate column 1 of 3
  Fluorescence competitive binding assay, OBP2 (raw fluorescence reading): 16160
[3]; ligand concentration 6 (unit not given), replicate column 2 of 3
  Fluorescence competitive binding assay, OBP2 (raw fluorescence reading): 16241
[3]; ligand concentration 6 (unit not given), replicate column 3 of 3
  Fluorescence competitive binding assay, OBP2 (raw fluorescence reading): 16073
[3]; ligand concentration 8 (unit not given), replicate column 1 of 3
  Fluorescence competitive binding assay, OBP2 (raw fluorescence reading): 14263
[3]; ligand concentration 8 (unit not given), replicate column 2 of 3
  Fluorescence competitive binding assay, OBP2 (raw fluorescence reading): 14653
[3]; ligand concentration 8 (unit not given), replicate column 3 of 3
  Fluorescence competitive binding assay, OBP2 (raw fluorescence reading): 15131
[3]; ligand concentration 10 (unit not given), replicate column 1 of 3
  Fluorescence competitive binding assay, OBP2 (raw fluorescence reading): 13747
[3]; ligand concentration 10 (unit not given), replicate column 2 of 3
  Fluorescence competitive binding assay, OBP2 (raw fluorescence reading): 14449
[3]; ligand concentration 10 (unit not given), replicate column 3 of 3
  Fluorescence competitive binding assay, OBP2 (raw fluorescence reading): 15134
[3]; ligand concentration 12 (unit not given), replicate column 1 of 3
  Fluorescence competitive binding assay, OBP2 (raw fluorescence reading): 12905
[3]; ligand concentration 12 (unit not given), replicate column 2 of 3
  Fluorescence competitive binding assay, OBP2 (raw fluorescence reading): 13209
[3]; ligand concentration 12 (unit not given), replicate column 3 of 3
  Fluorescence competitive binding assay, OBP2 (raw fluorescence reading): 14417
[3]; ligand concentration 14 (unit not given), replicate column 1 of 3
  Fluorescence competitive binding assay, OBP2 (raw fluorescence reading): 11252
[3]; ligand concentration 14 (unit not given), replicate column 2 of 3
  Fluorescence competitive binding assay, OBP2 (raw fluorescence reading): 12436
[3]; ligand concentration 14 (unit not given), replicate column 3 of 3
  Fluorescence competitive binding assay, OBP2 (raw fluorescence reading): 12979
[3]; ligand concentration 16 (unit not given), replicate column 1 of 3
  Fluorescence competitive binding assay, OBP2 (raw fluorescence reading): 11787
[3]; ligand concentration 16 (unit not given), replicate column 2 of 3
  Fluorescence competitive binding assay, OBP2 (raw fluorescence reading): 11767
[3]; ligand concentration 16 (unit not given), replicate column 3 of 3
  Fluorescence competitive binding assay, OBP2 (raw fluorescence reading): 11673
[3]; ligand concentration 18 (unit not given), replicate column 1 of 3
  Fluorescence competitive binding assay, OBP2 (raw fluorescence reading): 12436
[3]; ligand concentration 18 (unit not given), replicate column 2 of 3
  Fluorescence competitive binding assay, OBP2 (raw fluorescence reading): 11331
[3]; ligand concentration 18 (unit not given), replicate column 3 of 3
  Fluorescence competitive binding assay, OBP2 (raw fluorescence reading): 11969
[3]; ligand concentration 20 (unit not given), replicate column 1 of 3
  Fluorescence competitive binding assay, OBP2 (raw fluorescence reading): 11423
[3]; ligand concentration 20 (unit not given), replicate column 2 of 3
  Fluorescence competitive binding assay, OBP2 (raw fluorescence reading): 12242
[3]; ligand concentration 20 (unit not given), replicate column 3 of 3
  Fluorescence competitive binding assay, OBP2 (raw fluorescence reading): 11724
[4]
  IC50: > 20 µM
[4]; ligand concentration 2
  Fluorescence competitive binding assay, fluorescence intensity: 66323 and 67865 and 69406
[4]; ligand concentration 4
  Fluorescence competitive binding assay, fluorescence intensity: 72270 and 71733 and 72815
[4]; ligand concentration 6
  Fluorescence competitive binding assay, fluorescence intensity: 57537 and 56825 and 55208
[4]; ligand concentration 8
  Fluorescence competitive binding assay, fluorescence intensity: 58199 and 53071 and 55635
[4]; ligand concentration 10
  Fluorescence competitive binding assay, fluorescence intensity: 54477 and 51518 and 50551
[4]; ligand concentration 12
  Fluorescence competitive binding assay, fluorescence intensity: 55084 and 52185 and 53632
[4]; ligand concentration 14
  Fluorescence competitive binding assay, fluorescence intensity: 52805 and 53281 and 53058
[4]; ligand concentration 16
  Fluorescence competitive binding assay, fluorescence intensity: 41260 and 41464 and 41332
[4]; ligand concentration 18
  Fluorescence competitive binding assay, fluorescence intensity: 39853 and 41331 and 40577
[4]; ligand concentration 20
  Fluorescence competitive binding assay, fluorescence intensity: 39610 and 40773 and 38426
